From ChEMBL document CHEMBL6071123, “Design, synthesis and biological evaluation of 5-amino-1H-pyrazole-4-carboxamide derivatives as pan-FGFR covalent inhibitors” (Eur J Med Chem, 2024)
Active and inactive are the calls of the source. The rule behind the calls is not given here.

Columns and labels:
[1] = biological target: Fibroblast growth factor receptor 1 (Homo sapiens, UniProt P11362); test: biochemical; type: cell-based
Description: Inhibition of N-terminal 6-his tagged human wild type FGFR1 (458 to 765 residues) expressed in Escherichia coli BL21 cells using Tyr 04 peptide as substrate incubated for 1 hr by FRET based Z-lyte assay

[2] = biological target: Fibroblast growth factor receptor 2 (Homo sapiens, UniProt P21802, V564F); test: Inhibition of FGFR2 V564F mutant (unknown origin) using (Poly (4:1 Glu, Tyr) peptide as substrate by ADP-Glo kinase assay
Fibroblast growth factor receptor 2 (Homo sapiens, UniProt P21802, V564F), sequence (P21802 22-821 V564F limits assumed): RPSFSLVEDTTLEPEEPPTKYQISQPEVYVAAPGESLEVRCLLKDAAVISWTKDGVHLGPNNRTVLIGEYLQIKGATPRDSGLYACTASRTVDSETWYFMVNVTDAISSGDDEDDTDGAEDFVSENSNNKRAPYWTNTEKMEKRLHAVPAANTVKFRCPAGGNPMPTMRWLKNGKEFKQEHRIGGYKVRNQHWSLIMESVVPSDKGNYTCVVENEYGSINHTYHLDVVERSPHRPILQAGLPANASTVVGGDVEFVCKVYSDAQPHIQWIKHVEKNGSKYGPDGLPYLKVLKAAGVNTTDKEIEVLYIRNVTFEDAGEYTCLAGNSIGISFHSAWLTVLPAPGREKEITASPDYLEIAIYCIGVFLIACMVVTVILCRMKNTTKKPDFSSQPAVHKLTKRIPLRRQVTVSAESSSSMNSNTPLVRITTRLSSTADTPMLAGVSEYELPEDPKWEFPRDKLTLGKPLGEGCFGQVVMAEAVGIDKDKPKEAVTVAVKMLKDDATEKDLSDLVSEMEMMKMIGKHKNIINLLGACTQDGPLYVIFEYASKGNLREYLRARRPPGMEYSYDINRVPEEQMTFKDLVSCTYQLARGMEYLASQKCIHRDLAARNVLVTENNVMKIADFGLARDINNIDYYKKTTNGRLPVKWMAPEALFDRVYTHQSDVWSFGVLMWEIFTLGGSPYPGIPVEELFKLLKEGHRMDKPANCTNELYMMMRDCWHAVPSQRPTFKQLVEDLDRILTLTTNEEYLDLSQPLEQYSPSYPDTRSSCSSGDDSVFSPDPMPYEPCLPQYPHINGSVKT

[3] = Induction of cell cycle arrest in human KATO III stomach cancer cell line assessed as accumulation of cells at G1 phase at 100 nM measured after 24 hrs by PI staining based flow cytometry analysis (reference value: 29.8%); type: functional
[4] = biological target: Fibroblast growth factor receptor 2 (Mus musculus) (UniProt P21803); test: Inhibition of FGFR2 phosphorylation in mouse BaF3 cells harbouring FGFR2 V564F mutant measured after 6 hrs by Western blot analysis; type: cell-based; conditions: dose 0-1000 nM
Fibroblast growth factor receptor 2 (Mus musculus), sequence (P21803 whole entry): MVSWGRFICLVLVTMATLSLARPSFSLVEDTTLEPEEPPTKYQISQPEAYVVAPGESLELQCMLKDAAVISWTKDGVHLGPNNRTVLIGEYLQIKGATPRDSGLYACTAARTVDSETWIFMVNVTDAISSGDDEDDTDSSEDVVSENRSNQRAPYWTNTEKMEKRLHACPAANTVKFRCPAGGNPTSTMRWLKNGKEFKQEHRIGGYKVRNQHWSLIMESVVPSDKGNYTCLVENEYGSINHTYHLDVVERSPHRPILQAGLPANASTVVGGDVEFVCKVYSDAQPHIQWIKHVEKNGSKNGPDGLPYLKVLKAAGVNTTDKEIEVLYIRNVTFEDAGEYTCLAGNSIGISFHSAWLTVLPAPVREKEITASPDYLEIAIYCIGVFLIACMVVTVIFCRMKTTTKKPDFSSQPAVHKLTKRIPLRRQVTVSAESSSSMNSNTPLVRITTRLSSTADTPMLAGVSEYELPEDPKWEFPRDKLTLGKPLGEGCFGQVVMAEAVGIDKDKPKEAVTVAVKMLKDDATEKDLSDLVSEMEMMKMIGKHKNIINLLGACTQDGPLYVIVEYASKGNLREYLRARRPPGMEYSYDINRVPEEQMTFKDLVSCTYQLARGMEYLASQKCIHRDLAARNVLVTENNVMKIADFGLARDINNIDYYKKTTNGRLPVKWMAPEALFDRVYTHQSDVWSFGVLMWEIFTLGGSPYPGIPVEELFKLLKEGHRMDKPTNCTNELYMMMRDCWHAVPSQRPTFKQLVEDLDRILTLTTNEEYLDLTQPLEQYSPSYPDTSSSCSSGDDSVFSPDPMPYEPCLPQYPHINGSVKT

BaF3 [5] = test: Inhibition of AKT phosphorylation in mouse BaF3 cells harbouring FGFR2 V564F mutant measured after 6 hrs by Western blot analysis; type: cell-based; conditions: dose 0-1000 nM
BaF3 [6] = test: Effect on AKT protein level in mouse BaF3 cells harbouring FGFR2 V564F mutant at 0 to 1000 nM measured after 6 hrs by Western blot analysis; type: functional, cell-based; conditions: dose 0-1000 nM
[7] = Induction of cell cycle arrest in human KATO III stomach cancer cell line assessed as accumulation of cells at G1 phase at 10 nM measured after 24 hrs by PI staining based flow cytometry analysis (reference value: 29.8%); type: functional
[8] = Induction of apoptosis in human KATO III stomach cancer cell line assessed as early apoptotic cells at 1000 nM incubated for 48 hrs by annexin V-FITC/PI staining based flow cytometry analysis (reference value: 3.40%); type: functional
[9] = Metabolic stability in human liver microsomes assessed as intrinsic clearance at 1 uM measured upto 45 mins in presence of NADPH by HPLC-MS/MS analysis; type: ADME, Microsome; conditions: read-out: CLH
[10] = Induction of apoptosis in human KATO III stomach cancer cell line assessed as late apoptotic cells at 100 nM incubated for 48 hrs by annexin V-FITC/PI staining based flow cytometry analysis (reference value: 6.39%); type: functional
[11] = Induction of apoptosis in human KATO III stomach cancer cell line assessed as early apoptotic cells at 100 nM incubated for 48 hrs by annexin V-FITC/PI staining based flow cytometry analysis (reference value: 3.40%); type: functional
[12] = Induction of apoptosis in human KATO III stomach cancer cell line assessed as necrotic cells at 1000 nM incubated for 48 hrs by annexin V-FITC/PI staining based flow cytometry analysis (reference value: 0.072%); type: functional
[13] = Induction of cell cycle arrest in human KATO III stomach cancer cell line assessed as accumulation of cells at S phase at 100 nM measured after 24 hrs by PI staining based flow cytometry analysis (reference value: 28.3%); type: functional
[14] = biological target: Fibroblast growth factor receptor 3 (Homo sapiens, UniProt P22607); test: Inhibition of FGFR3 (unknown origin) using Tyr 04 peptide as substrate incubated for 1 hr by FRET based Z-lyte assay
Fibroblast growth factor receptor 3, sequence (P22607 whole entry): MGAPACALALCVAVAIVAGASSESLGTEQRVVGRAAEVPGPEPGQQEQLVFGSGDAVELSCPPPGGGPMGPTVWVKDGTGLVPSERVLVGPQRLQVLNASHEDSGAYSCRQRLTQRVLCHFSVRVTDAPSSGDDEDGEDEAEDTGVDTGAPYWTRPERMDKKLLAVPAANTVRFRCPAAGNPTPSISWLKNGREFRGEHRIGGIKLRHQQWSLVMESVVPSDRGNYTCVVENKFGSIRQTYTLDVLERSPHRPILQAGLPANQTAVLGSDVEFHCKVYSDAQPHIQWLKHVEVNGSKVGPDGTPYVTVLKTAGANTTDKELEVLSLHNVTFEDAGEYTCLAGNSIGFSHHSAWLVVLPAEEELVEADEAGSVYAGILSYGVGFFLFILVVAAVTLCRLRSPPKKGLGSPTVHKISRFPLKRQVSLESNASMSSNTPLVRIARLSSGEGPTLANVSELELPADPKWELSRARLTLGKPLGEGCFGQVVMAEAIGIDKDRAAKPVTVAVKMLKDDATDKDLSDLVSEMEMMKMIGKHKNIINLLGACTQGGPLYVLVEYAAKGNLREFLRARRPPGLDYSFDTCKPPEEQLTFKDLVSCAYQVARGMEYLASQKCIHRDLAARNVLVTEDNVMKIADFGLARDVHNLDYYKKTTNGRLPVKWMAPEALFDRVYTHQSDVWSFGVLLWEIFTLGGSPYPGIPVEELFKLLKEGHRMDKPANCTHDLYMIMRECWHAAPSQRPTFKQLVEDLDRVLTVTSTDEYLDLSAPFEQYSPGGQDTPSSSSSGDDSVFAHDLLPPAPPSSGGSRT

[15] = Induction of cell cycle arrest in human KATO III stomach cancer cell line assessed as accumulation of cells at G2 phase at 1000 nM measured after 24 hrs by PI staining based flow cytometry analysis (reference value: 42.5%); type: functional
[16] = biological target: T1, Fibroblast growth factor receptor 2 (Homo sapiens, UniProt P21802); test: biochemical; type: cell-based
Target sequence in this assay (P21802 whole entry): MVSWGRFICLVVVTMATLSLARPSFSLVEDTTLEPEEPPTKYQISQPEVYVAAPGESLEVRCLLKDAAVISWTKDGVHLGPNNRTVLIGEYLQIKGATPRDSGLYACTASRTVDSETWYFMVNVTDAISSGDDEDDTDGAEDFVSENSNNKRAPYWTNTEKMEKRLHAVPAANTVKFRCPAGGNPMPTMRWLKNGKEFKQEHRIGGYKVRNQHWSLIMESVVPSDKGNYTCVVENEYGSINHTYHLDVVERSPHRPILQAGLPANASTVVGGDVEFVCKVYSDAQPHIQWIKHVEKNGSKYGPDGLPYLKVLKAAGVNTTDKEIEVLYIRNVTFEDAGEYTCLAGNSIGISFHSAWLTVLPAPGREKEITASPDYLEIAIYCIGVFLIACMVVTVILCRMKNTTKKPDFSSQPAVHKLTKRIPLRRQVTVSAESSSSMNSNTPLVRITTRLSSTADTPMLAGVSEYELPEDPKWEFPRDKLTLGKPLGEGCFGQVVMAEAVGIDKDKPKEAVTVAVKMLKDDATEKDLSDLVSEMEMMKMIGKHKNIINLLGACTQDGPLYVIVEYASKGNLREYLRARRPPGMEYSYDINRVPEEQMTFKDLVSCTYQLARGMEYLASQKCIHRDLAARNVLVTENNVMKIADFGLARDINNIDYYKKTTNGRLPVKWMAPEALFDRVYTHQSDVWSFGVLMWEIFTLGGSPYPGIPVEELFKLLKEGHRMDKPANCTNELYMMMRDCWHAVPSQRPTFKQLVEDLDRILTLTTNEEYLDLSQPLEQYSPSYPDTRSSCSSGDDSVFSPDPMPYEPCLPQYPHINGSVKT
Description: Inhibition of N-terminal 6-his tagged human wild type FGFR2 (458 to 768 residues) expressed in Escherichia coli BL21 cells using Tyr 04 peptide as substrate incubated for 1 hr by FRET based Z-lyte assay

[17] = Induction of apoptosis in human KATO III stomach cancer cell line assessed as late apoptotic cells at 10 nM incubated for 48 hrs by annexin V-FITC/PI staining based flow cytometry analysis (reference value: 6.39%); type: functional
[18] = Metabolic stability in human liver microsomes assessed as half life at 1 uM measured upto 45 mins in presence of NADPH by HPLC-MS/MS analysis; type: ADME, Microsome
NCI-H520 = test: Antiproliferative activity against human NCI-H520 cells measured after 3 days by CCK-8 method; type: functional, cell-based; conditions: NCI-H520, 72 h
BaF3 [19] = test: Antiproliferative activity against mouse BaF3 cells harbouring FGFR2 V564F mutant assessed as reduction in cell viability incubated for 72 hrs by CCK-8 method; type: functional, cell-based; conditions: BaF3, 72 h
[20] = Metabolic stability in human liver microsomes assessed as hepatic clearance at 1 uM measured upto 45 mins in presence of NADPH by HPLC-MS/MS analysis; type: ADME, Microsome
KATO III = test: Induction of cell cycle arrest in human KATO III stomach cancer cell line assessed as accumulation of cells at G1 phase measured after 24 hrs by PI staining based flow cytometry analysis; type: functional; conditions: dose 10-1000 nM
BaF3 [21] = test: Effect on FGFR2 protein level in mouse BaF3 cells harbouring FGFR2 V564F mutant at 0 to 1000 nM measured after 6 hrs by Western blot analysis; type: functional, cell-based; conditions: dose 0-1000 nM
[22] = Induction of apoptosis in human KATO III stomach cancer cell line assessed as viable cells at 10 nM incubated for 48 hrs by annexin V-FITC/PI staining based flow cytometry analysis (reference value: 90.1%); type: functional; conditions: read-out: Activity
[23] = Induction of apoptosis in human KATO III stomach cancer cell line assessed as necrotic cells at 100 nM incubated for 48 hrs by annexin V-FITC/PI staining based flow cytometry analysis (reference value: 0.072%); type: functional
[24] = Induction of cell cycle arrest in human KATO III stomach cancer cell line assessed as accumulation of cells at G1 phase at 1000 nM measured after 24 hrs by PI staining based flow cytometry analysis (reference value: 29.8%); type: functional
SNU-16 [25] = test: Antiproliferative activity against human SNU-16 cells measured after 3 days by CCK-8 method; type: functional, cell-based; conditions: SNU-16, 72 h
[26] = Induction of apoptosis in human KATO III stomach cancer cell line assessed as early apoptotic cells at 10 nM incubated for 48 hrs by annexin V-FITC/PI staining based flow cytometry analysis (reference value: 3.40%); type: functional
[27] = Antiproliferative activity against human KATO III stomach cancer cell line measured after 3 days by CCK-8 method; type: functional, cell-based; conditions: 72 h
[28] = Induction of cell cycle arrest in human KATO III stomach cancer cell line assessed as accumulation of cells at S phase at 10 nM measured after 24 hrs by PI staining based flow cytometry analysis (reference value: 28.3%); type: functional
[29] = biological target: T1, Fibroblast growth factor receptor 2; test: Inhibition of FGFR2 phosphorylation in human SNU-16 measured after 2 hrs by Western blot analysis; type: cell-based; conditions: dose 0-300 nM
Target sequence in this assay (P21802 22-821 limits assumed): as the sequence (P21802 22-821 V564F limits assumed) above, with F543V counted along it

[30] = Induction of apoptosis in human KATO III stomach cancer cell line assessed as necrotic cells at 10 nM incubated for 48 hrs by annexin V-FITC/PI staining based flow cytometry analysis (reference value: 0.072%); type: functional
[31] = Induction of apoptosis in human KATO III stomach cancer cell line assessed as viable cells at 100 nM incubated for 48 hrs by annexin V-FITC/PI staining based flow cytometry analysis (reference value: 90.1%); type: functional; conditions: read-out: Activity
[32] = Induction of apoptosis in human KATO III stomach cancer cell line assessed as late apoptotic cells at 1000 nM incubated for 48 hrs by annexin V-FITC/PI staining based flow cytometry analysis (reference value: 6.39%); type: functional
[33] = Induction of apoptosis in human KATO III stomach cancer cell line assessed as viable cells at 1000 nM incubated for 48 hrs by annexin V-FITC/PI staining based flow cytometry analysis (reference value: 90.1%); type: functional; conditions: read-out: Activity
SNU-16 [34] = test: Inhibition of AKT phosphorylation in human SNU-16 measured after 2 hrs by Western blot analysis; type: cell-based; conditions: dose 0-300 nM
[35] = Metabolic stability in human liver microsomes assessed as hepatic extraction ratio at 1 uM measured upto 45 mins in presence of NADPH by HPLC-MS/MS analysis; type: ADME, Microsome; conditions: read-out: ERH

Fibroblast growth factor receptor 1, sequence (P11362 whole entry): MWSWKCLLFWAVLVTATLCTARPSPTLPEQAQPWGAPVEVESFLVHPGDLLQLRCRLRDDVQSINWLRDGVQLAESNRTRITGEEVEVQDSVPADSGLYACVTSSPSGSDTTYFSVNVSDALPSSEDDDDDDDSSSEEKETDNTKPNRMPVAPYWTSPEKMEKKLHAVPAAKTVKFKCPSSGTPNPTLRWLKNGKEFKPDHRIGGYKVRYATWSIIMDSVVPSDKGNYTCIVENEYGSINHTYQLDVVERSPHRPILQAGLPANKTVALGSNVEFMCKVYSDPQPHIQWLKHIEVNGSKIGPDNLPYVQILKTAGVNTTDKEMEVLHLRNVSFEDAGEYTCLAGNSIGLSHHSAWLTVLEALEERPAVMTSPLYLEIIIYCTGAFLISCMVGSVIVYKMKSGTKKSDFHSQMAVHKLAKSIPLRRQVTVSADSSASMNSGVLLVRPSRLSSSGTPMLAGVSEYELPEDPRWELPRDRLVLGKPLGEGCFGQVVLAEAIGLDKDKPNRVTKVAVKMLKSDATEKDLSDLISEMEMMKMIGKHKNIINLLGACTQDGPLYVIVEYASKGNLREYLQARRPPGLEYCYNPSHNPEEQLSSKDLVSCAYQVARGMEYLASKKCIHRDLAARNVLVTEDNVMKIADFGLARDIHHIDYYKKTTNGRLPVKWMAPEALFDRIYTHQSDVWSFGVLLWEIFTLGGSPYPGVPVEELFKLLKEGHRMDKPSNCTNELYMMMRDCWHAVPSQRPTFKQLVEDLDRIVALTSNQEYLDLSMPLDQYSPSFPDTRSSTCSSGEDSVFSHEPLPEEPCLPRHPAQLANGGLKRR

## C=CC(=O)Nc1ccc(CCCn2nc(C#Cc3cc(OC)cc(OC)c3)c3c(N)ncnc32)cc1
[1]
  IC50: 1590 nM

## C=CC(=O)Nc1cccc(Cn2nc(C#Cc3c(F)cc4[nH]c(C)nc4c3F)c(C(N)=O)c2N)c1
[2]
  IC50: 62 nM
[3]
  Activity: 59.4%
[4]
  inhibition: Dose-Dependent Effect
BaF3 [5]
  inhibition: Dose-Dependent Effect
BaF3 [6]
  Activity: Active
[7]
  Activity: 35.3%
[8]
  Activity: 10.1%
[9]
  CLint scaled at 1 µM: 34.5 mL/min/kg
[10]
  Activity: 8.53%
[11]
  Activity: 8.85%
[12]
  Activity: 0.085%
[13]
  Activity: 3.33%
[14]
  IC50: 99 nM
[15]
  Activity: 35.7%
[16]
  IC50: 41 nM
[17]
  Activity: 7.38%
[18]
  half-life at 1 µM: 46.4 min
NCI-H520
  IC50: 73 nM
BaF3 [19]
  IC50: 87 nM
[20]
  CLhep predicted at 1 µM: 12.9 mL/min/kg
KATO III
  Activity: Dose-Dependent Effect
BaF3 [21]
  Activity: Active
[22]
  viability at 0.01 µM: 86.7%
[23]
  Activity: 0.27%
[24]
  Activity: 66.4%
SNU-16 [25]
  IC50: 19 nM
[26]
  Activity: 5.84%
[27]
  IC50: 59 nM
[28]
  Activity: 25.5%
[29]
  inhibition: Dose-Dependent Effect
[30]
  Activity: 0.065%
[31]
  viability at 0.1 µM: 82.4%
[32]
  Activity: 12.7%
[33]
  viability at 1 µM: 77.1%
SNU-16 [34]
  inhibition: Dose-Dependent Effect

## C=CC(=O)Nc1ccc(Cn2nc(C#Cc3ccc4[nH]c(C)nc4c3)c3c(N)ncnc32)cc1
[1]
  IC50: 680 nM

## C=CC(=O)N1CC[C@H](n2nc(C#Cc3cc(OC)cc(OC)c3)c3c(N)ncnc32)C1 [FUTIBATINIB]
NCI-H520
  IC50: 14 nM
SNU-16 [25]
  IC50: 0.44 nM
[27]
  IC50: 4 nM

## C=CC(=O)Nc1ccc(Cn2nc(C#Cc3c(F)cc4[nH]c(C)nc4c3F)c(C(N)=O)c2N)cc1
[1]
  IC50: 130 nM

## C=CC(=O)Nc1ccc(Cn2nc(-c3ccc(Oc4nccc(C)n4)c(F)c3)c3c(N)ncnc32)cc1
[1]
  IC50: > 10000 nM

## C=CC(=O)Nc1ccc(Cn2nc(C#Cc3ccc4sc(C)nc4c3)c(C(N)=O)c2N)cc1
[1]
  IC50: 950 nM

## C=CC(=O)Nc1ccc(Cn2nc(C#Cc3ccc(-c4c[nH]c(C)n4)cc3)c(C(N)=O)c2N)cc1
[1]
  IC50: > 10000 nM

## C=CC(=O)Nc1ccc(Cn2nc(C#Cc3cc(OC)cc(OC)c3)c3c(N)ncnc32)cc1
[1]
  IC50: 660 nM

## C=CC(=O)Nc1ccc(CCCCn2nc(C#Cc3cc(OC)cc(OC)c3)c3c(N)ncnc32)cc1
[1]
  IC50: 2340 nM

## C=CC(=O)Nc1ccc(Cn2nc(-c3cc4cc(C)cc(OC)c4s3)c3c(N)ncnc32)cc1
[1]
  IC50: 23 nM

## C=CC(=O)Nc1ccc(Cn2nc(-c3ccc(Oc4ccccc4)cc3)c3c(N)ncnc32)cc1
[1]
  IC50: 4800 nM

## C=CC(=O)Nc1ccc(Cn2nc(C#Cc3ccc4oc(C)nc4c3)c(C(N)=O)c2N)cc1
[1]
  IC50: 610 nM

## C=CC(=O)Nc1cccc(Cn2nc(C#Cc3c(F)cc4[nH]c(C)nc4c3F)c(C(N)=O)c2NCCOC)c1
[1]
  IC50: 2910 nM

## C=CC(=O)Nc1cccc(Cn2nc(C#Cc3c(F)cc4[nH]c(C)nc4c3F)c(C(N)=O)c2NCC)c1
[1]
  IC50: > 10000 nM

## C=CC(=O)Nc1cccc(Cn2nc(C#Cc3c(F)cc4[nH]c(C)nc4c3F)c(C(N)=O)c2NC)c1
[1]
  IC50: > 10000 nM

## O=C(c1ccc(F)cc1)C1CCN(CCn2c(=O)[nH]c3ccccc3c2=O)CC1 [KETANSERIN]
[9]
  CLint scaled at 1 µM: 36.7 mL/min/kg
[35]
  hepatic extraction ratio at 0.75 h, 1 µM: 0.639
[18]
  half-life at 1 µM: 43.7 min
[20]
  CLhep predicted at 1 µM: 13.2 mL/min/kg

## C=CC(=O)Nc1ccc(CCn2nc(C#Cc3cc(OC)cc(OC)c3)c3c(N)ncnc32)cc1
[1]
  IC50: 3460 nM

## C=CC(=O)Nc1ccc(Cn2nc(-c3ccc4[nH]c(C)nc4c3)c3c(N)ncnc32)cc1
[1]
  IC50: 2000 nM

## C=CC(=O)Nc1ccccc1Cn1nc(C#Cc2ccc3[nH]c(C)nc3c2)c(C(N)=O)c1N
[1]
  IC50: 880 nM

## C=CC(=O)Nc1ccc(Cn2nc(C#Cc3ccc4[nH]c(C)nc4c3)c(C(N)=O)c2N)cc1
[1]
  IC50: 320 nM
